Results on 24 compounds are retold here after patent publication US20230312528A1, “2-OXO-IMIDAZOLIDINE-4-CARBOXAMIDES AS NAV1.8 INHIBITORS” (Merck Sharp & Dohme LLC, priority 2020, published 2023).

The IC50 is the concentration needed to halve the response being measured. The low end stands for inhibition by little substance, the high end for a need for much substance.

This assay has as its target human NaV1.8 (Homo sapiens (Human), UniProt Q9Y5Y9). Description: Nav1.8 Qube automated patch-clamp assay. The format is cell-based. Particulars: human NaV1.8 stably expressed in HEK 293 cells; automated 384-well patch-clamp; resting or inactivated state not specified. As for the experimental part: Compounds were tested on human NaV1.8 and NaV1.5 channels stably expressed in human embryo kidney (HEK) 293 cells. Sodium current measurements on Qube® were conducted as follows: automated 384-well patch-clamp assays on the Qube® platform (Sophion Biosciences) were used to measure the inhibition of sodium flow through human NaV1.8 and NaV1.5 channels. Whole-cell voltage-clamp recordings were performed in QChips® (Sophion Biosciences) at room temperature. NaV1.8 current measurements on Qube® were obtained as follows: NaV1.8 currents were elicited with a 10 second 1 Hertz (Hz) pulse train from a holding potential of −90 millivolts (mV), delivered to the cells once per minute in the control condition (DMSO only) and after compound addition. The 1 hertz pulse train stimulation consisted of ten test pulses to 10 millivolt (mV) for 20 milliseconds (ms), each of which was followed by a 980 millisecond repolarization to −67 millivolts. At the end of the 10 second pulse train stimulation, a 5 second hyperpolarization step to −100 millivolt (mV) was used to recover NaV1.8 from fast inactivation. The peak currents elicited by the 1st and 10th test pulses were used to determine IC50 values for resting inhibition and inactivated state inhibition. NaV1.5 current measurements on Qube® were obtained as follows: NaV1.5 currents were elicited with a 20 second 3 Hertz pulse train in the control condition (DMSO only) and after compound addition. The pulse train consisted of sixty 20 millisecond test pulses to 0 millivolt from a holding potential of −80 millivolt (mV). The average peak currents elicited by the last 3 test pulses were used to determine IC50 values for NaV1.5 inhibition.
The following buffers were used for the Qube® recordings: External buffer for NaV1.8 Qube® recording: 150 NaCl, 2 CaCl2, 5 KCl, 1 Mg Cl2, 10 HEPES, 12 Dextrose; External buffer for Qube® NaV1.5 recording: 120 N-Methyl-D-Glucamine, 40 NaCl, 1 KCl, 2.7 CaCl2, 5 HEPES, 0.5 MgCl2; and Internal buffer for Qube® recording: 120 CsF, 30 CsCl, 10 EGTA, 5 HEPES, 5 NaF, 2 MgCl2.
For all Qube® experiments offline analysis was used to determine percent inhibition as a function of drug concentration. IC50 values were determined by fitting to the Hill equation.
In general terms: The patch-clamp technique gives a direct electrical read-out from membranes.

Chain of human NaV1.8 (Q9Y5Y9 whole entry): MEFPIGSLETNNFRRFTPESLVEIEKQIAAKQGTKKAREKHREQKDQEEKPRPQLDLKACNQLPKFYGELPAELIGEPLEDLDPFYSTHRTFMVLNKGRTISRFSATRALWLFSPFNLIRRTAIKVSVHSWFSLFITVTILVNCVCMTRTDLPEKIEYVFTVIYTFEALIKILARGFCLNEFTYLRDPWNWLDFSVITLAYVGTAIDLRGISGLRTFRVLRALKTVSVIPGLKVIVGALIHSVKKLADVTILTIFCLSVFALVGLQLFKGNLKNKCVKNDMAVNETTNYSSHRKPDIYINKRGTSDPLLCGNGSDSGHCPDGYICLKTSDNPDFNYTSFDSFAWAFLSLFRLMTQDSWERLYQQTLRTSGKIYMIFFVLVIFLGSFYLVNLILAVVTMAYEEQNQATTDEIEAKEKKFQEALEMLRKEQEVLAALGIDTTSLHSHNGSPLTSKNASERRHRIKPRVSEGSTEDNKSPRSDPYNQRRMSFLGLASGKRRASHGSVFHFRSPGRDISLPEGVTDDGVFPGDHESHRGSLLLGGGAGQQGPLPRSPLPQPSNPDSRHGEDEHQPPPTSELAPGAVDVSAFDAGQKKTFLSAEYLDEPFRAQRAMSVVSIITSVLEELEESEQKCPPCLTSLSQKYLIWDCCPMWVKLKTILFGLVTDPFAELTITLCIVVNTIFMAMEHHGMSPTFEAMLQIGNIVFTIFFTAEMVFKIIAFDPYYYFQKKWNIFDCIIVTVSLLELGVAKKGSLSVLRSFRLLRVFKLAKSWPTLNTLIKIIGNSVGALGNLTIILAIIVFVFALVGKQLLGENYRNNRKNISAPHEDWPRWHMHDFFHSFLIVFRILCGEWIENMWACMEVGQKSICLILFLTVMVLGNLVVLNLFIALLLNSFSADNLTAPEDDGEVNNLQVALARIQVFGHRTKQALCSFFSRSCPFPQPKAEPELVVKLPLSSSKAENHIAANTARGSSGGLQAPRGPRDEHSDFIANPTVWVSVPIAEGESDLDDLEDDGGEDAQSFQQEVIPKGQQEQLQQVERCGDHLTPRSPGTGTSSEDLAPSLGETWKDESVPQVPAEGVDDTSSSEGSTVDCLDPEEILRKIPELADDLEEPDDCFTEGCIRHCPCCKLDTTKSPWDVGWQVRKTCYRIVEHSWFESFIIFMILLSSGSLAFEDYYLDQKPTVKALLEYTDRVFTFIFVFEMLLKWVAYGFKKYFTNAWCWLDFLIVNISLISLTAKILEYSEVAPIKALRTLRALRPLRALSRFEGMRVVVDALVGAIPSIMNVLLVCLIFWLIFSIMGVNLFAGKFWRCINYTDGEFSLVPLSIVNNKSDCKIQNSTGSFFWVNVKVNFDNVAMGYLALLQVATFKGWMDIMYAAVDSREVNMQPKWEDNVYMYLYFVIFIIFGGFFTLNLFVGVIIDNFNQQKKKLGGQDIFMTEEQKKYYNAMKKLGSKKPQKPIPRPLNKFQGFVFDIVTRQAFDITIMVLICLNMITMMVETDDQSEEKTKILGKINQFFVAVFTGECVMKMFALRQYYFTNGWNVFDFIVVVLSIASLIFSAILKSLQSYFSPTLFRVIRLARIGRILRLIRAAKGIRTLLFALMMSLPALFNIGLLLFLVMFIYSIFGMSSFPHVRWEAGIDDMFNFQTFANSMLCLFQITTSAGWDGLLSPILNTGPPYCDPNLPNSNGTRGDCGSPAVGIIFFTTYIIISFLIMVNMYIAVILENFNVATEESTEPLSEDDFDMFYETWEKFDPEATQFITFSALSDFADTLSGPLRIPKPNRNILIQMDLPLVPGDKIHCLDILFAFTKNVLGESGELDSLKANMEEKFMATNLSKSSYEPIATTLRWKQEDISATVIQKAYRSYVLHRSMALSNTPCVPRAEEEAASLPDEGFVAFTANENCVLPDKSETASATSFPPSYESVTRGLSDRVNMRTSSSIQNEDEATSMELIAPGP

As for `CN1CC(C(=O)NC(c2ccc(Cl)cc2)c2ccc(Cl)cc2)NC1=O` (single isomer, unassigned) [Example 10A, (R or S)-N-[bis(4-chlorophenyl)methyl]-1-methyl-2-oxoimidazolidine-4-carboxamide], half-maximal inhibition (IC50) required 1070 nM.

The compound `CN1CC(C(=O)NC(c2ccc(Cl)cc2)c2ccc(Cl)cc2)NC1=O` (single isomer, unassigned) [Example 10B, (R or S)-N-[bis(4-chlorophenyl)methyl]-1-methyl-2-oxoimidazolidine-4-carboxamide] had an IC50 of 504 nM.

In turn, `O=C1NC[C@@H](C(=O)NC(c2ccc(F)c(Cl)c2)c2ccc(F)c(OCC(F)(F)F)n2)N1` (single isomer, unassigned) [Example 11A, (4S)-N-{((R or S)-3-chloro-4-fluorophenyl)[5-fluoro-6-(2,2,2-trifluoro-ethoxy)pyridin-2-yl]methyl}-2-oxoimidazolidine-4-carboxamide] registered an IC50 of 50 nM.

`O=C1NC[C@@H](C(=O)NC(c2ccc(F)c(Cl)c2)c2ccc(F)c(OCC(F)(F)F)n2)N1` (single isomer, unassigned) [Example 11B, (4S)-N-{((R or S)-3-chloro-4-fluoro-phenyl)[5-fluoro-6-(2,2,2-trifluoro-ethoxy)pyridin-2-yl]methyl}-2-oxoimidazolidine-4-carboxamide] showed an IC50 of 3.9 nM.

Regarding `N#Cc1cccc(C(NC(=O)[C@@H]2CNC(=O)N2)c2ccc(F)c(Cl)c2)n1` (single isomer, unassigned) [Example 12A, (4S)-N-[((R or S)-3-chloro-4-fluorophenyl)(6-cyanopyridin-2-yl)methyl]-2-oxoimidazolidine-4-carboxamide], half-maximal inhibition (IC50) required 81 nM.

In the case of `N#Cc1cccc(C(NC(=O)[C@@H]2CNC(=O)N2)c2ccc(F)c(Cl)c2)n1` (single isomer, unassigned) [Example 12B, (4S)-N-[((R or S)-3-chloro-4-fluorophenyl)(6-cyanopyridin-2-yl)methyl]-2-oxoimidazolidine-4-carboxamide], 1420 nM corresponded to half-maximal inhibition (IC50).

In turn, `O=C1NC[C@@H](C(=O)NC(c2cnc(C3CC3)c(Cl)c2)c2ccc(F)c(Cl)c2F)N1` (single isomer, unassigned) [Example 13A, (4S)-N-[((R or S)-5-chloro-6-cyclo-propylpyridin-3-yl)(3-chloro-2,4-difluoro-phenyl)methyl]-2-oxoimidazolidine-4-carboxamide] returned an IC50 of 1.1 nM.

The compound `O=C1NC[C@@H](C(=O)NC(c2cnc(C3CC3)c(Cl)c2)c2ccc(F)c(Cl)c2F)N1` (single isomer, unassigned) [Example 13B, (4S)-N-[((R or S)-5-chloro-6-cyclo-propylpyridin-3-yl)(3-chloro-2,4-difluoro-phenyl)methyl]-2-oxoimidazolidine-4-carboxamide] gave an IC50 of 38 nM.

The compound `O=C1NC[C@@H](C(=O)NC(c2cnc(C(F)(F)F)c(Cl)c2)c2ccc(F)c(C(F)(F)F)n2)N1` (single isomer, unassigned) [Example 14A, (4S)-N-{[(R or S)-5-chloro-6-(trifluoro-methyl)pyridin-3-yl][5-fluoro-6-(trifluoro-methyl)pyridin-2-yl]methyl}-2-oxoimidazolidine-4-carboxamide] displayed an IC50 of 2.4 nM.

Take `O=C1NC[C@@H](C(=O)NC(c2cnc(C(F)(F)F)c(Cl)c2)c2ccc(F)c(C(F)(F)F)n2)N1` (single isomer, unassigned) [Example 14B, (4S)-N-{[R or S)-5-chloro-6-(trifluoro-methyl)pyridin-3-yl][5-fluoro-6-(trifluoro-methyl)pyridin-2-yl]methyl}-2-oxoimidazolidine-4-carboxamide]: 21 nM corresponded to half-maximal inhibition (IC50).

In turn, `C[C@@H]1C[C@H](C(NC(=O)[C@@H]2CNC(=O)N2)c2ccc(F)c(Cl)c2)C[C@H](C)N1CC(F)(F)F` (single isomer, unassigned) [Example 15A, (S)-N-((R or S)-(3-chloro-4-fluoro-phenyl)(cis-2,6-dimethyl-1-(2,2,2-trifluoroethyl)piperidin-4-yl)methyl)-2-oxoimidazolidine-4-carboxamide] came in with an IC50 of 31 nM. The IC50 values of the last two compounds are within 1.5-fold of each other.

With `C[C@@H]1C[C@H](C(NC(=O)[C@@H]2CNC(=O)N2)c2ccc(F)c(Cl)c2)C[C@H](C)N1CC(F)(F)F` (single isomer, unassigned) [Example 15B, (S)-N-((R or S)-(3-chloro-4-fluoro-phenyl)(cis-2,6-dimethyl-1-(2,2,2-trifluoroethyl)piperidin-4-yl)methyl)-2-oxoimidazolidine-4-carboxamide], the IC50 was found to be 965 nM.

`O=C1NC[C@@H](C(=O)NC(c2ccc(F)c(Cl)c2)c2csc(C3(C(F)(F)F)CC3)n2)N1` (single isomer, unassigned) [Example 16A, (S)-N-((R or S)-(3-choro-4-fluoro-phenyl)(2-(1-(trifluoromethyl)cyclopropyl)thiazol-4-yl)methyl)-2-oxoimidazolidine-4-carboxamide] gave an IC50 of 1.1 nM.

In turn, `O=C1NC[C@@H](C(=O)NC(c2ccc(F)c(Cl)c2)c2csc(C3(C(F)(F)F)CC3)n2)N1` (single isomer, unassigned) [Example 16B, (S)-N-((R or S)-(3-chloro-4-fluoro-phenyl)(2-(1-(trifluoromethyl)cyclopropyl)thiazol-4-yl)methyl)-2-oxoimidazolidine-4-carboxamide] gave an IC50 of 14 nM.

For the compound `O=C1NC[C@@H](C(=O)NC(c2ccc(Cl)cc2)c2ccc(F)c(C(F)(F)F)c2)N1` (single isomer, unassigned) [Example 17A, (S)-N-((R or S)-(4-chlorophenyl)(4-fluoro-3-(trifluoro-methyl)phenyl)methyl)-2-oxoimidazolidine-4-carboxamide], the IC50 was 0.6 nM.

`O=C1NC[C@@H](C(=O)NC(c2ccc(Cl)cc2)c2ccc(F)c(C(F)(F)F)c2)N1` (single isomer, unassigned) [Example 17B, (S)-N-((R or S)-(4-chloropehnyl)(4-fluoro-3-(trifluoro-methyl)phenyl)methyl)-2-oxoimidazolidine-4-carboxamide] registered an IC50 of 7 nM.

`N#Cc1ccc(C(NC(=O)[C@@H]2CNC(=O)N2)c2ccc(F)c(Cl)c2)cc1` (single isomer, unassigned) [Example 18A, (S)-N-((R or S)-(3-chloro-4-fluoro-phenyl)(4-cyano-phenyl)methyl)-2-oxoimidazolidine-4-carboxamide]: the IC50 came out at 18 nM.

The compound `N#Cc1ccc(C(NC(=O)[C@@H]2CNC(=O)N2)c2ccc(F)c(Cl)c2)cc1` (single isomer, unassigned) [Example 18B, (S)-N-((R or S)-(3-chloro-4-fluoro-phenyl)(4-cyano-phenyl)methyl)-2-oxoimidazolidine-4-carboxamide] displayed an IC50 of 17 nM.

Turning to `CC1(C(=O)NC(c2ccc(Cl)cc2)c2ccc(Cl)cc2)NC(=O)NC1=O` (single isomer, unassigned) [Example 20A, (R or S)—N-(bis(4-chlorophenyl)methyl)-4-methyl-2,5-dioxoimidazolidine-4-carboxamide], the midpoint of inhibition, the IC50, lay at 19200 nM.

The compound `CC1(C(=O)NC(c2ccc(Cl)cc2)c2ccc(Cl)cc2)NC(=O)NC1=O` (single isomer, unassigned) [Example 20B, (R or S)—N-(bis(4-chlorophenyl)methyl)-4-methyl-2,5-dioxoimidazolidine-4-carboxamide] showed an IC50 of 9480 nM. This IC50 is about 2-fold lower than that of the compound before.

In the case of `O=C(NC(c1ccc(Cl)cc1)c1ccc(Cl)cc1)C1CNC(=O)N1CCO` (single isomer, unassigned) [Example 21A, (R or S)—N-(bis(4-chlorophenyl)methyl)-3-(2-hydroxyethyl)-2-oxoimidazolidine-4-carboxamide], the IC50 was 209 nM.

`O=C(NC(c1ccc(Cl)cc1)c1ccc(Cl)cc1)C1CNC(=O)N1CCO` (single isomer, unassigned) [Example 21B, (R or S)—N-(bis(4-chlorophenyl)methyl)-3-(2-hydroxyethyl)-2-oxoimidazolidine-4-carboxamide]: the IC50 turned out to be 14700 nM.

`O=C1NC[C@@H](C(=O)NC(c2ccc(Cl)cc2)c2cnc(C(F)(F)F)[nH]2)N1` (single isomer, unassigned) [Example 22A, (S)—N—((R or S)-(4-chlorophenyl)(2-(trifluoromethyl)-1H-imidazol-4-yl)methyl)-2-oxoimidazolidine-4-carboxamide] came in with an IC50 of 373 nM.

As to `O=C1NC[C@@H](C(=O)NC(c2ccc(Cl)cc2)c2cnc(C(F)(F)F)[nH]2)N1` (single isomer, unassigned) [Example 22B, (S)—N—((R or S)-(4-chlorophenyl)(2-(trifluoromethyl)-1H-imidazol-4-yl)methyl)-2-oxoimidazolidine-4-carboxamide], the IC50 is 6410 nM. Against the preceding compound, the IC50 is about 17-fold higher.
